PubChem BioAssay AID248 (DTP/NCI, 2004)
Several values for one entry are separate records, joined by “and”; a condition that tells them apart may be missing. Identical values can stand only once. Inconclusive results and toxic doses are left out. Cut-off read from the data, not from the text of the source: active = T/C of 150% or more; inactive = T/C below 125%.

System: L1210 leukemia ip in BDF1 mice, survival T/C
Test: NCI In Vivo Anticancer Drug Screen. Data for tumor model L1210 Leukemia (intraperitoneal) in B6D2F1 (BDF1) mice
Conditions: endpoint: mean survival time, higher = longer survival
Method: The antitumor activity of compounds was measured in mice bearing transplantable tumors. Survival or tumor size were measured and the results are expressed as the measurement made in the treated group (T) divided by the measurement made in the vehicle treated control group (C). The tumor model used in this assay is L1210 Leukemia (intraperitoneal) in B6D2F1 (BDF1) mice

[1] = dose: 25.0 mg/kg/injection, schedule: Q04DX003 (ip), vehicle: saline with Tween-80
[2] = dose: 50.0 mg/kg/injection, schedule: Q04DX003 (ip), vehicle: saline with Tween-80
[3] = dose: 100.0 mg/kg/injection, schedule: Q01DX009 (ip), vehicle: Klucel (hydroxypropylcellulose) (HPC)
[4] = dose: 200.0 mg/kg/injection, schedule: Q01DX009 (ip), vehicle: Klucel (hydroxypropylcellulose) (HPC)
[5] = dose: 400.0 mg/kg/injection, schedule: Q01DX009 (ip), vehicle: Klucel (hydroxypropylcellulose) (HPC)
[6] = dose: 100.0 mg/kg/injection, schedule: Q01DX009 (ip), vehicle: saline with Tween-80
[7] = dose: 100.0 mg/kg/injection, schedule: Q04DX003 (ip), vehicle: saline with Tween-80
[8] = dose: 200.0 mg/kg/injection, schedule: Q01DX009 (ip), vehicle: saline with Tween-80
[9] = dose: 200.0 mg/kg/injection, schedule: Q04DX003 (ip), vehicle: saline with Tween-80
[10] = dose: 400.0 mg/kg/injection, schedule: Q01DX009 (ip), vehicle: saline with Tween-80
[11] = dose: 400.0 mg/kg/injection, schedule: Q04DX003 (ip), vehicle: saline with Tween-80
[12] = dose: 100.0 mg/kg/injection, schedule: Q04DX002 (ip), vehicle: Klucel (hydroxypropylcellulose) (HPC)
[13] = dose: 200.0 mg/kg/injection, schedule: Q04DX002 (ip), vehicle: Klucel (hydroxypropylcellulose) (HPC)
[14] = dose: 400.0 mg/kg/injection, schedule: Q04DX002 (ip), vehicle: Klucel (hydroxypropylcellulose) (HPC)
[15] = dose: 50.0 mg/kg/injection, schedule: Q04DX003 (ip), vehicle: Klucel (hydroxypropylcellulose) (HPC)
[16] = dose: 100.0 mg/kg/injection, schedule: Q04DX003 (ip), vehicle: Klucel (hydroxypropylcellulose) (HPC)
[17] = dose: 200.0 mg/kg/injection, schedule: Q04DX003 (ip), vehicle: Klucel (hydroxypropylcellulose) (HPC)
[18] = dose: 50.0 mg/kg/injection, schedule: Q01DX009 (ip), vehicle: saline
[19] = dose: 100.0 mg/kg/injection, schedule: Q01DX001 (ip), vehicle: saline
[20] = dose: 100.0 mg/kg/injection, schedule: Q01DX009 (ip), vehicle: saline
[21] = dose: 200.0 mg/kg/injection, schedule: Q01DX001 (ip), vehicle: saline
[22] = dose: 400.0 mg/kg/injection, schedule: Q01DX001 (ip), vehicle: saline

Measured: T/C

CC(=O)c1scc2c1CCCC2
inactive: dose: 25.0 mg/kg/injection, schedule: Q01DX001 (ip), vehicle: saline with Tween-80 94 % of control | dose: 50.0 mg/kg/injection, schedule: Q01DX001 (ip), vehicle: saline with Tween-80 96 % of control | dose: 100.0 mg/kg/injection, schedule: Q01DX001 (ip), vehicle: saline with Tween-80 96 % of control

O=C1NC(=S)S/C1=C\c1ccc(F)cc1
inactive: dose: 12.5 mg/kg/injection, schedule: Q04DX003 (ip), vehicle: saline with Tween-80 117 % of control | [1] 98 % of control | [2] 103 % of control

N#CCCN1c2ccccc2Sc2ccc(Cl)cc21
inactive: [3] 96 % of control | [4] 101 % of control | [5] 98 % of control

CCOC(=O)C(O)(NC(=O)N/N=C/c1ccccc1)C(=O)OCC
inactive: [6] 101 % of control | [7] 106 % of control | [8] 92 % of control | [9] 104 % of control | [10] 93 % of control | [11] 101 % of control

O=S(=O)(CBr)C1C2C=CC(C2)C1c1ccccc1 (stereo not given)
inactive: [12] 106 % of control | [13] 106 % of control | [14] 97 % of control

COc1ccc(/C=C(\C#N)c2ccc([N+](=O)[O-])cc2)cc1OC
inactive: dose: 100.0 mg/kg/injection, schedule: Q04DX002 (ip), vehicle: saline with Tween-80 90 % of control | dose: 200.0 mg/kg/injection, schedule: Q04DX002 (ip), vehicle: saline with Tween-80 90 % of control | dose: 400.0 mg/kg/injection, schedule: Q04DX002 (ip), vehicle: saline with Tween-80 90 % of control

CC(Cc1ccccc1)NC(C#N)c1ccccc1 (stereo not given)
inactive: dose: 12.5 mg/kg/injection, schedule: Q01DX009 (ip), vehicle: Klucel (hydroxypropylcellulose) (HPC) 107 % of control | dose: 25.0 mg/kg/injection, schedule: Q01DX009 (ip), vehicle: Klucel (hydroxypropylcellulose) (HPC) 88 % of control | dose: 25.0 mg/kg/injection, schedule: Q04DX003 (ip), vehicle: Klucel (hydroxypropylcellulose) (HPC) 98 % of control | [1] 97 % of control | dose: 50.0 mg/kg/injection, schedule: Q01DX009 (ip), vehicle: Klucel (hydroxypropylcellulose) (HPC) 91 % of control | [15] 109 % of control | [2] 100 % of control | [3] 96 % of control | [16] 109 % of control | [7] 92 % of control | [17] 101 % of control

CC1CCCN(C(=O)Nc2cccc(Cl)c2Cl)C1 (stereo not given)
inactive: [3] 87 % of control | [4] 92 % of control | [5] 96 % of control

CN(C)N=Nc1ccc(C(=O)N/N=C/c2cccc([N+](=O)[O-])c2)cc1
inactive: [15] 92 % of control | [16] 106 % of control | [17] 92 % of control

N#CCCOCC(COCCC#N)OCCC#N
inactive: dose: 50.0 mg/kg/injection, schedule: Q01DX001 (ip), vehicle: saline 106 % of control | [18] 124 % of control | [19] 108 % of control | [20] 108 % of control | [21] 101 % of control | [22] 92 % of control

C=C(C)C(N)=O
inactive: [20] 102 % of control | dose: 200.0 mg/kg/injection, schedule: Q01DX009 (ip), vehicle: saline 94 % of control

CC1(C)CC1(F)Cl (stereo not given)
inactive: dose: 100.0 mg/kg/injection, schedule: Q01DX001 (ip), vehicle: carboxymethylcellulose (CMC) 103 % of control | dose: 200.0 mg/kg/injection, schedule: Q01DX001 (ip), vehicle: carboxymethylcellulose (CMC) 97 % of control | dose: 400.0 mg/kg/injection, schedule: Q01DX001 (ip), vehicle: carboxymethylcellulose (CMC) 101 % of control

CCC(C)C(C(=O)OC1CCN(C)CC1)c1ccccc1 (stereo not given)
inactive: dose: 25.0 mg/kg/injection, schedule: Q04DX003 (ip), vehicle: saline 102 % of control | [18] 105 % of control | dose: 50.0 mg/kg/injection, schedule: Q04DX003 (ip), vehicle: saline 96 % of control | [20] 98 % of control | dose: 100.0 mg/kg/injection, schedule: Q04DX003 (ip), vehicle: saline 97 % of control and 108 % of control

O=c1cc(-c2ccccc2)sc(-c2ccccc2)c1
inactive: dose: 75.0 mg/kg/injection, schedule: Q04DX003 (ip), vehicle: saline 100 % of control | [16] 103 % of control | dose: 150.0 mg/kg/injection, schedule: Q04DX003 (ip), vehicle: saline 95 % of control | [17] 105 % of control | dose: 300.0 mg/kg/injection, schedule: Q04DX003 (ip), vehicle: saline 92 % of control | dose: 400.0 mg/kg/injection, schedule: Q04DX003 (ip), vehicle: Klucel (hydroxypropylcellulose) (HPC) 103 % of control

O=C(Cc1ccccc1)O/C=C1/CCOC1=O
inactive: [12] 91 % of control | [13] 91 % of control | [14] 94 % of control

CN1NC(=O)C2CCCC1O2 (stereo not given)
inactive: [19] 95 % of control | [21] 105 % of control | [22] 94 % of control

CC1(C)N=C(c2ccccc2)C2(c3ccccc3)N1C2(C)C (stereo not given)
inactive: dose: 6.0 mg/kg/injection, schedule: Q01DX001 (ip), vehicle: Klucel (hydroxypropylcellulose) (HPC) 92 % of control | dose: 12.0 mg/kg/injection, schedule: Q01DX001 (ip), vehicle: Klucel (hydroxypropylcellulose) (HPC) 101 % of control | dose: 25.0 mg/kg/injection, schedule: Q01DX001 (ip), vehicle: Klucel (hydroxypropylcellulose) (HPC) 101 % of control

C/C=C1/CN(C)C2Cc3c([nH]c4ccccc34)C(c3cc4[nH]c5c(c4cc3OC)CCN3CC4CC(C(C)O)C3C5(C(=O)OC)C4)CC1C2C(=O)OC (stereo not given)
inactive: dose: 10.0 mg/kg/injection, schedule: Q01DX Z (ip), vehicle: other 97 % of control | dose: 20.0 mg/kg/injection, schedule: Q01DX Z (ip), vehicle: other 93 % of control | dose: 30.0 mg/kg/injection, schedule: Q01DX Z (ip), vehicle: other 90 % of control | dose: 30.0 mg/kg/injection, schedule: Q02DX Z (ip), vehicle: other 104 % of control | dose: 40.0 mg/kg/injection, schedule: Q01DX Z (ip), vehicle: other 95 % of control | dose: 40.0 mg/kg/injection, schedule: Q01DX Z (ip), vehicle: water 90 % of control | dose: 40.0 mg/kg/injection, schedule: Q02DX Z (ip), vehicle: other 103 % of control | dose: 60.0 mg/kg/injection, schedule: Q02DX Z (ip), vehicle: other 102 % of control | dose: 80.0 mg/kg/injection, schedule: Q01DX Z (ip), vehicle: water 94 % of control | dose: 80.0 mg/kg/injection, schedule: Q02DX Z (ip), vehicle: other 95 % of control

O=C(O)c1ccccc1C(=O)NC(Cc1cnc[nH]1)C(=O)O (stereo not given)
inactive: [6] 96 % of control | [7] 102 % of control | [8] 100 % of control | [9] 102 % of control | [10] 94 % of control | [11] 91 % of control
